Source: patent publication US9370547B2, “Compositions and methods for treating ischemia” (UNIVERSITY OF KENTUCKY RESEARCH FOUNDATION, priority 2014, dated 2016)

Tests used:
[1] = cited from earlier work
WT mice after MCAo = settings: mouse, in vivo
[2] = test system: claudin-5 expression in mouse brain endothelial cells; assay: Claudin-5 western blot and immunocytochemistry in brain endothelial cells after OGD; format: cell-based
Description: FIG. 11A includes a claudin-5 western blot of brain endothelial cells after OGD that were treated as labeled.
FIG. 11B includes plot showing the quantification of claudin-5 expression normalized to Ponceau S total protein stain for the samples show in FIG. 11A.
FIG. 11C includes images showing claudin-5 immunocytochemistry of WT mouse brain endothelial cells either just prior to (control) or 24 hours after OGD treated as labeled. Scale bar is 5 μm.

Row | Substance | serum half-life ([1]; for some subjects) [h] | tissue distribution ([1]; in vivo) | safety of intravenous administration ([1]; intravenous) | animal vital signs upon administration (WT mice after MCAo) | tolerability (signs of illness such as fur ruffling, weight differences) (WT mice after MCAo) | claudin-5 levels compared with ATN-161 and normoxic control [2]
1 | Ac-PHSCN-NH2 [ATN-161] | 3 to 5 | high tissue distribution | can be safely administered intravenously | did not alter animal vital signs | well tolerated | –
2 | Ac-PhScN—NH2 | – | – | – | – | – | more effective than ATN-161
